How the values were obtained:
endogenous PR-1a gene = experiment: Assay for chemical induction of the endogenous PR-1a gene (mRNA, primer extension); type: in vivo; settings: tobacco plant materials, control procedure
Procedure: 50 g of total RNA is lyophilized in a 500 l Eppendorf tube. The RNA is resuspended in 30 l of radiolabeled probe solution and heated to 70′ C. for 10 minutes. The tube is slowly cooled to 37° C. and allowed to incubate overnight. Without removing the tube from the 37° C. water bath, 2 l of 10×reverse-transcriptase buffer (500 mM Tris-HCl, pH 7.5, 400 mM KCl, 30 mM MgCl2), 1 l 5 mg/ml bovine serum albumin, 5 l 100 mM dithiothreitol, 5 l 10×dNTPs (10 mM of each dNTP in H2O), 3 l H 20, 2 l RNasin (80 units), and 2 l reverse transcriptase (400 units) are added and the reaction is incubated at 37° C. for 30 minutes. To stop the reaction, 5 l of 3 M sodium acetate, pH 5, and 150 l absolute ethanol are added. The tube is left at −20° C. for 30 minutes, the precipitate is collected by centrifugation, washed with 80% ethanol and allowed to air-dry. The precipitate is resuspended in 10-20 l of loading dye (90% formamide, 0.05% bromophenol blue, 0.05% xylene cyanol, 1 mM EDTA) and the extension products are separated on a 6% sequencing gel (Maniatis, T. et al., supra). Extension products are visualized by autoradiography.
As a control procedure, tobacco plant materials induced as described in Examples 139-141 by salicylic acid, methyl benzo-1,2,3-thiadiazole-7-carboxylate and TMV are assayed for transcription of mRNA from the endogenous PR-1a gene by the methods described in Example 6.

chimeric PR-1a/GUS gene [1] = experiment: Chemical induction of chimeric PR-1a/GUS gene in transgenic tobacco plants, β-glucuronidase assay of leaf extracts; type: in vivo, Nicotiana tabacum
Procedure: A. Gene expression is induced in plants obtained according to previously described procedures by applying a fine spray of a solution of 0.1 to 50 mM salicylic acid which has been adjusted to a pH between 6.0 and 8.0 with NaOH, to the leaves using a plant mister.
The plants are allowed to continue to grow for two days and are then harvested, frozen in liquid nitrogen and stored at −80° C. until they are assayed as described in Example 65 and/or Example 66.
B. Alternatively, the following solutions are used for induction:
(§1) (3) Methyl benzo-1,2,3-thiadiazole-7-carboxylate. The solution is made by resuspending a wettable powder containing the chemical in sterile water for several minutes at a concentration of 1 mg/ml. Insoluble solid is removed from the solution by filter sterilizing.
Frozen leaf tissue is ground in a mortar with a pestle in the presence of liquid nitrogen to produce a fine powder. Leaf extracts are prepared by mixing a given weight (g) with an equal volume (ml) of GUS extraction buffer (50 mM sodium phosphate buffer pH 7.0, 0.1% Triton-X 100, 0.1% sarkosyl, 10 mM β-mercaptoethanol) as described by Jefferson, R. A. et al., Proc. Natl. Acad. Sci. USA 83: 8447-8451 (1986).
(§2) The reactions are carried out in the wells of ELISA plates by mixing 5-25 l extract with 120-100 l GUS assay buffer (50 mM sodium phosphate buffer pH 7.0, 0.1% Triton X-100, 10 mM β-mercaptoethanol) containing 4-methyl umbelliferyl glucuronide (MU) at a final concentration of 2 mM in a total volume of 125 l. The plate is incubated at 37° C. for 1-5 hours and the reaction is stopped by the addition of 150 l 3 M Na2CO3. The concentration of fluorescent indicator released is determined by reading the plate on a Flow Labs Fluoroskan II ELISA plate reader.

chimeric PR-1a/GUS gene [2] = experiment: GUS induction in transformed tobacco callus; type: cell-based, Nicotiana tabacum
Procedure: Agrobacterium strains containing the appropriate vectors are used to transform callus forming from the leaf disks (Example 112). Callus forming on kanamycin-containing MSBN selection medium is maintained on a callus growth medium comprised of MS major, minor salts and Fe-EDTA (Gibco #500-1117; 4.3 g/l), MS vitamins, 100 mg/l myo-inositol, 20 g/l sucrose, 2 mg/l naphthaleneacetic acid and 0.3 mg/l kinetin.
The callus can be used to regenerate transgenic plants by transferring callus pieces to MSBN medium and following methods described in Examples 111 and 112. The callus is also used to measure gene induction following application of inducing chemicals and to screen for gene inducing chemicals.
A. Callus obtained according to previously described procedures is assayed for chemical induction by applying with a sterile paint brush or a plant mister a filter sterilized solution of 0.1 to 50 mM salicylic acid which has been adjusted to a pH between 6.0 and 8.0 by the addition of NaOH. […]
as §1
Frozen leaf tissue is ground in a mortar with a pestle in the presence of liquid nitrogen to produce a fine powder. […]
as §2, with “The plate is incubated at 37° C. for 1-5 hours and the reaction is stopped by the addition of 150 l 3 M Na2CO3.” left out, “reader. […]” for “reader.”

[3] = tobacco plant Alu 1 (CIB272), water 5.6, buffer 20.5
[4] = tobacco plant Alu 2 (CIB272), water 2.0, buffer 8.9
[5] = tobacco plant Alu 3 (CIB272), water 0.1, buffer 2.0
[6] = tobacco plant Alu 4 (CIB272), water 2.1, buffer 6.1
[7] = tobacco plant Alu 5 (CIB272), water 0.6, buffer 0.5
[8] = tobacco plant Alu 6 (CIB272), water 0.8, buffer 3.1
[9] = tobacco plant Alu 7 (CIB272), water 1.7, buffer 21.7
[10] = tobacco plant Alu 8 (CIB272), water 0.6, buffer 0.6
[11] = tobacco plant Alu 9 (CIB272), water 0.9, buffer 0.3
[12] = tobacco plant Alu 10 (CIB272), water 4.0, buffer 8.1
[13] = tobacco plant Alu 11 (CIB272), water 1.6, buffer 2.2
[14] = tobacco plant Alu 12 (CIB272), water 0.7, buffer 2.3
[15] = tobacco plant Alu 13 (CIB272), water 0.1, buffer 1.9
[16] = tobacco plant H 1 (CIB271), water 5.39, buffer 20.1
[17] = tobacco plant H 3 (CIB271), water 0.21, buffer 1.66
[18] = tobacco plant H 4 (CIB271), water 8.39, buffer 2.28
[19] = tobacco plant H 6 (CIB271), water 0.10, buffer 0.09
[20] = tobacco plant H 9 (CIB271), water 0.23, buffer 0.5
[21] = tobacco plant Hae 1 (CIB273), water 0.6, buffer 1.7
[22] = tobacco plant Hae 2 (CIB273), water 2.3, buffer 0.4
[23] = tobacco plant Hae 3 (CIB273), water 1.7, buffer 3.0
[24] = tobacco plant Hae 4 (CIB273), water 2.0, buffer 1.7
[25] = tobacco plant Hae 5 (CIB273), water 18.1, buffer 36.6
[26] = tobacco plant Hae 8 (CIB273), water 0.4, buffer 0.6
[27] = tobacco plant Hae 9 (CIB273), water 2.6, buffer 12.5
[28] = tobacco plant Hae 10 (CIB273), water 1.6, buffer 13.5
[29] = tobacco plant Hae 11 (CIB273), water 2.6, buffer 3.9
[30] = tobacco plant Hae 12 (CIB273), water 0.2, buffer 0.6
[31] = tobacco plant Hae 13 (CIB273), water 0.01, buffer nd
[32] = tobacco plant Hae 14 (CIB273), water 0.1, buffer 0.1
[33] = tobacco plant Hae 15 (CIB273), water 0.1, buffer 3.4
[34] = tobacco plant Hae 16 (CIB273), water 0.1, buffer 0.8

Structure (SMILES)	transcription of mRNA from the endogenous PR-1a gene (endogenous PR-1a gene)	Specific Activity nKat MU/mg protein (chimeric PR-1a/GUS gene [1]; [3])	Specific Activity nKat MU/mg protein (chimeric PR-1a/GUS gene [1]; [4])	Specific Activity nKat MU/mg protein (chimeric PR-1a/GUS gene [1]; [5])	Specific Activity nKat MU/mg protein (chimeric PR-1a/GUS gene [1]; [6])	Specific Activity nKat MU/mg protein (chimeric PR-1a/GUS gene [1]; [7])	Specific Activity nKat MU/mg protein (chimeric PR-1a/GUS gene [1]; [8])	Specific Activity nKat MU/mg protein (chimeric PR-1a/GUS gene [1]; [9])	Specific Activity nKat MU/mg protein (chimeric PR-1a/GUS gene [1]; [10])	Specific Activity nKat MU/mg protein (chimeric PR-1a/GUS gene [1]; [11])	Specific Activity nKat MU/mg protein (chimeric PR-1a/GUS gene [1]; [12])	Specific Activity nKat MU/mg protein (chimeric PR-1a/GUS gene [1]; [13])	Specific Activity nKat MU/mg protein (chimeric PR-1a/GUS gene [1]; [14])	Specific Activity nKat MU/mg protein (chimeric PR-1a/GUS gene [1]; [15])	Specific Activity nKat MU/mg protein (chimeric PR-1a/GUS gene [1]; [16])	Specific Activity nKat MU/mg protein (chimeric PR-1a/GUS gene [1]; [17])	Specific Activity nKat MU/mg protein (chimeric PR-1a/GUS gene [1]; [18])	Specific Activity nKat MU/mg protein (chimeric PR-1a/GUS gene [1]; [19])	Specific Activity nKat MU/mg protein (chimeric PR-1a/GUS gene [1]; [20])	Specific Activity nKat MU/mg protein (chimeric PR-1a/GUS gene [1]; [21])	further results
COC(=O)c1cccc2nnsc12 [Methyl benzo-1,2,3-thiadiazole-7-carboxylate]	Elevated levels of mRNA	206.9 nKat MU/mg protein	83.2 nKat MU/mg protein	2.0 ± .9 nKat MU/mg protein	7.1 ± 2.6 nKat MU/mg protein	1.2 ± .6 nKat MU/mg protein	67.0 nKat MU/mg protein	29.1 nKat MU/mg protein	0.4 nKat MU/mg protein	0.4 nKat MU/mg protein	52.0 nKat MU/mg protein	2.8 ± 1.3 nKat MU/mg protein	73.4 nKat MU/mg protein	13.2 nKat MU/mg protein	13.5 ± 0.8 nKat MU/mg protein	11.95 ± 0.85 nKat MU/mg protein	18.52 ± 1.07 nKat MU/mg protein	2.58 ± .01 nKat MU/mg protein	9.1 nKat MU/mg protein	2.6 nKat MU/mg protein	Specific Activity nKat MU/mg protein (chimeric PR-1a/GUS gene [1]; [22]): 11.8 nKat MU/mg protein; Specific Activity nKat MU/mg protein (chimeric PR-1a/GUS gene [1]; [23]): 11.2 nKat MU/mg protein; Specific Activity nKat MU/mg protein (chimeric PR-1a/GUS gene [1]; [24]): 10.8 nKat MU/mg protein; Specific Activity nKat MU/mg protein (chimeric PR-1a/GUS gene [1]; [25]): 132.5 nKat MU/mg protein; Specific Activity nKat MU/mg protein (chimeric PR-1a/GUS gene [1]; [26]): 28.9 nKat MU/mg protein; Specific Activity nKat MU/mg protein (chimeric PR-1a/GUS gene [1]; [27]): 129.7 nKat MU/mg protein; Specific Activity nKat MU/mg protein (chimeric PR-1a/GUS gene [1]; [28]): 98.2 nKat MU/mg protein; Specific Activity nKat MU/mg protein (chimeric PR-1a/GUS gene [1]; [29]): 58.5 nKat MU/mg protein; Specific Activity nKat MU/mg protein (chimeric PR-1a/GUS gene [1]; [30]): 5.8 nKat MU/mg protein; Specific Activity nKat MU/mg protein (chimeric PR-1a/GUS gene [1]; [31]): 0.1 nKat MU/mg protein; Specific Activity nKat MU/mg protein (chimeric PR-1a/GUS gene [1]; [32]): 8.6 nKat MU/mg protein; Specific Activity nKat MU/mg protein (chimeric PR-1a/GUS gene [1]; [33]): 7.2 nKat MU/mg protein; Specific Activity nKat MU/mg protein (chimeric PR-1a/GUS gene [1]; [34]): 4.3 nKat MU/mg protein; GUS activities (chimeric PR-1a/GUS gene [2]; tobacco callus transformed with CIB271 (different experiment), 250 g/l spray, 21 hours, H2O spray 2.8): 13.7 nKat MU/mg protein; GUS activities (chimeric PR-1a/GUS gene [2]; tobacco callus transformed with CIB273, 250 g/l spray, 21 hours, H2O spray 0.46): 31.2 nKat MU/mg protein
O=C(O)c1ccccc1O [Salicylic acid, salicylic acid]	Elevated levels of mRNA	20.0 nKat MU/mg protein	6.6 nKat MU/mg protein	2.8 ± .9 nKat MU/mg protein	43.0 ± 19 nKat MU/mg protein	4.4 ± 2.3 nKat MU/mg protein	28.8 nKat MU/mg protein	38.7 nKat MU/mg protein	0.4 nKat MU/mg protein	0.6 nKat MU/mg protein	39.2 nKat MU/mg protein	1.9 ± .9 nKat MU/mg protein	57.1 ± 22 nKat MU/mg protein	19.1 nKat MU/mg protein	13.9 ± 1.2 nKat MU/mg protein	6.92 ± 0.88 nKat MU/mg protein	27.5 ± 0.7 nKat MU/mg protein	4.08 ± 0.58 nKat MU/mg protein	10.8 nKat MU/mg protein	1.6 nKat MU/mg protein	Specific Activity nKat MU/mg protein (chimeric PR-1a/GUS gene [1]; [22]): 8.8 nKat MU/mg protein; Specific Activity nKat MU/mg protein (chimeric PR-1a/GUS gene [1]; [23]): 11.1 nKat MU/mg protein; Specific Activity nKat MU/mg protein (chimeric PR-1a/GUS gene [1]; [24]): 8.1 nKat MU/mg protein; Specific Activity nKat MU/mg protein (chimeric PR-1a/GUS gene [1]; [25]): 59.4 nKat MU/mg protein; Specific Activity nKat MU/mg protein (chimeric PR-1a/GUS gene [1]; [26]): 30.6 nKat MU/mg protein; Specific Activity nKat MU/mg protein (chimeric PR-1a/GUS gene [1]; [27]): 63.9 nKat MU/mg protein; Specific Activity nKat MU/mg protein (chimeric PR-1a/GUS gene [1]; [28]): 70.5 nKat MU/mg protein; Specific Activity nKat MU/mg protein (chimeric PR-1a/GUS gene [1]; [29]): 81.8 nKat MU/mg protein; Specific Activity nKat MU/mg protein (chimeric PR-1a/GUS gene [1]; [30]): 2.5 nKat MU/mg protein; Specific Activity nKat MU/mg protein (chimeric PR-1a/GUS gene [1]; [31]): 0.7 nKat MU/mg protein; Specific Activity nKat MU/mg protein (chimeric PR-1a/GUS gene [1]; [32]): 1.8 nKat MU/mg protein; Specific Activity nKat MU/mg protein (chimeric PR-1a/GUS gene [1]; [33]): 6.4 nKat MU/mg protein; Specific Activity nKat MU/mg protein (chimeric PR-1a/GUS gene [1]; [34]): 2.3 nKat MU/mg protein; GUS activities (chimeric PR-1a/GUS gene [2]; tobacco callus transformed with CIB271, 50 mM spray, harvested 21 hours after treatment, H2O spray 1.8): 3.8 nKat MU/mg protein
